Data as given in article PMC7804942, “The amphibian peptide Yodha is virucidal for Zika and dengue viruses” (Scientific Reports, 2021).
Like-named read-outs stand apart in the source and are kept apart here. Where a SMILES comes first, the peptide text is derived from it.

How the values were obtained:
[1] = system: human red blood cells; format: cell-based
Method: Single donor human red blood cells (Innovative Research) were washed in PBS (pH 7.4) with three times centrifugation at 500 × g for 5 min. Serially diluted frog peptides or OVA control peptide were prepared in V-bottom 96 well plates and mixed with washed 2 × 10^7 human RBC per each well for 1 h at 37 °C. PBS solution was used as a negative control (0% lysis), and 0.1% Triton X-100 in PBS was used as 100% lysis. The plates were centrifuged at 300 × g at 4 °C for 5 min to pellet the intact RBCs and supernatant of each well was measured by absorbance at 450 nm.

[2] = system: ZIKV (PRVABC59); test: ZIKV entry, immunofluorescence of flavivirus E protein in Vero cells; format: cell-based, Zika virus; conditions: ZIKV exposed to peptide, then Vero cells infected for 30 min
Method: Next, we determined whether the observed Yodha peptide-induced decrease in viral titers was due to blocked viral entry. We reasoned that if the peptide directly kills or disrupts the envelope structure of ZIKV, this would prevent virus entry. To test this, we designed an experiment to measure virus entry, by allowing ZIKV to bind cells at 4 °C for 1 h followed by shifting the cells to 37 °C to permit virus entry (Fig. 2A). It has been shown that DENV2 entry occurs within 25 min by early endosome trafficking. Briefly, we exposed ZIKV to Yodha peptide and then allowed the virus to infect Vero cells for 30 min. We then measured viral RNA within the Vero cells by quantitative Real Time-PCR (qRT-PCR) (Fig. 2B). […] Next, we visualized ZIKV entry or lack thereof by immunofluorescence using antibodies against pan flavivirus E protein. […] Next, we sought to determine if Yodha peptide could reduce infectious virus production in cells already infected with ZIKV. Briefly, we infected Vero cells, allowed virus attachment and entry, and then added Yodha peptide to the culture medium at 1, 24, 48, and 72 h post-infection. We collected culture supernatants at 3, 24, 48, and 72 h after ZIKV infection to quantitate ZIKV by FFU assay (Fig. 2E). ZIKV was not detected at 3 h post-infection in both OVA- or Yodha-treated cells. […]

[3] = system: DENV3; conditions: FFA
Method: (§1) Dengue virus strains 1, 2, 3 and 4 were treated with wither Yodha or control OVA peptide at (A) 50 µM (B) 160 µM concentration and the % of viral focus forming units were determined. (C) IC50 measurement of Yodha in DENVs infection by FFA. […] OVA peptide was used a negative control.
(§2) Peptides were incubated with ZIKV (100 FFU/well) for 2 h at 37 °C. This incubated mixture was used to infect Vero cells for 1.5 h at 37 °C. Cells and inoculum were overlaid with 2% methylcellulose solution (OptiMEM; Gibco) and incubated for 72 h at 37 °C. Cells were washed with PBS and fixed with a 1:1 methanol/acetone mixture for 30 min. Cells were blocked with 5% milk/PSB at room temperature for 20 min and incubated with primary antibody (anti-flavivirus mouse 4G2[10] antibody) for 2 h at 37 °C. Then, cells were incubated with secondary antibody (HRP-conjugated goat anti-mouse IgG, Cell Signaling) for 1 h at 37 °C. Cells were developed with TrueBlue Peroxidase Substrate (KPL). Plates were read on a CTL-ImmunoSpot S6 Micro analyzer.

[4] = system: DENV2; test: Focus forming assay, dengue virus; format: cell-based; conditions: 50 µM peptide, FFA
Method: as §1, §2

[5] = system: DENV4; test: Focus forming assay, dengue virus; format: cell-based; conditions: 50 µM peptide, FFA
Method: as §1, §2

[6] = system: DENV1; test: Focus forming assay, dengue virus; format: cell-based; conditions: 50 µM peptide, FFA
Method: as §1, §2

[7] = system: ZIKV; test: Transmission electron microscopy of peptide-treated ZIKV; design: species or system Zika virus; conditions: 200 µM peptide, 10 min, negative staining TEM
Method: To test this, we treated ZIKV with Yodha peptide or control peptide for 10 min and analyzed virus particles by electron microscopy.
(A) TEM micrographs of ZIKV treated with OVA (control) or Yodha peptide are shown. ZIKV were incubated with the peptides at 200 µM for just 10 min, fixed with paraformaldehyde and then processed for electron microscopy. Yodha treatment led to loss of morphology and aggregation of virus particles. (B) Enlarged images of ZIKV treated with control or Yodha peptide from (A) are shown. The data is representative of three experiments performed.
ZIKV samples were fixed with 4% buffered paraformaldehyde before negative staining. 5 µl of Zika sample was then deposited onto a 400-mesh carbon-coated copper grid that had been treated by glow-discharged for 20 s and allowed 5 min for the sample to settle in a covered glass dish. The grids with samples were then quickly washed by touching the sample side on two drops double distilled water, wick with filter paper, and then stained with 1% phosphotungstic acid (PTA) for 15 s before removing PTA with filter paper. Zika virus was imaged on a JEOL JEM-1400 transmission electron microscope (JEOL Ltd., Tokyo, Japan) equipped with a Gatan US1000 CCD camera (Gatan, Pleasanton, CA).

[8] = system: MR766 ZIKV strain; test: ZIKV MR766 infection of IFNAR KO mice, morbidity; format: in vivo, mouse; conditions: MR766, peptide-treated vs control group
Method: To assess morbidity, we switched to IFNAR KO mice and infected them with the MR766 ZIKV strain.
All mouse studies were approved by the IACUC of Emory University. C57BL/6 mice were purchased from The Jackson Laboratory. All mice were maintained in specified pathogen-free in accordance with the institutional guidelines of Emory University’s Animal Care and Use Committee. All control and experimental mice were age- and sex-matched. For viral titer assessment, Wild-type C57BL/6 J mice were injected with 2 mg of an anti-Ifnar1 blocking antibody (MAR1-5A3) by the intraperitoneal route 24hrs prior to infection. Mice were anesthetized with isoflurane and inoculated by the subcutaneous route into both rear footpads with 5 × 10^4 PFU of ZIKV PRVABC59 (1 × 10^5 PFU total inoculum per mouse) in a 20µL inoculum diluted in Hanks balanced salt solution (HBSS) supplemented with 1% heat-inactivated FBS. For analysis of morbidity by ZIKV viral infection, we infected 5- to 6-week-old IFNAR KO mice with ZIKV MR766 (100 PFU total inoculum per mouse). Mice were monitored daily for morbidity and mortality.

Compound: CC[C@H](C)[C@H](NC(=O)[C@@H](NC(=O)CNC(=O)[C@H](CC(C)C)NC(=O)[C@H](Cc1ccccc1)NC(=O)[C@H](Cc1ccccc1)NC(=O)[C@H](CC(C)C)NC(=O)[C@H](CC(C)C)NC(=O)[C@H](CC(C)C)NC(=O)[C@H](CCSC)NC(=O)[C@@H](N)CO)[C@@H](C)O)C(=O)N[C@@H](CO)C(=O)N[C@@H](CC(C)C)C(=O)N[C@@H](CO)C(=O)N[C@@H](CC(C)C)C(=O)N[C@@H](CS)C(=O)N[C@@H](CCC(N)=O)C(=O)N[C@@H](CC(=O)O)C(=O)N[C@@H](CC(=O)O)C(=O)N[C@@H](CCC(N)=O)C(=O)N[C@@H](CCC(=O)O)C(=O)N[C@@H](CCCNC(=N)N)C(=O)N[C@@H](CS)C(=O)O [Yodha] (H-SMLLLFFLGTISLSLCQDDQERC-OH; N-terminus and C-terminus assumed)
- cytotoxicity against human erythrocytes (screen of the 12 hits) [1]: no cytotoxicity
- expression of ZIKV envelope in cells (immunofluorescence) [2]: decreased expression of ZIKV envelope
- inhibition of DENV3 ([3]; 50 µM peptide): not DENV3
- inhibition of DENV3 ([3]; 160 µM peptide): very efficient
- inhibition of DENV2 [4]: efficiently inhibited
- inhibition of DENV4 [5]: efficiently inhibited
- inhibition of DENV1 [6]: efficiently inhibited
- virus particle integrity by electron microscopy [7]: disruption of viral particles
- weight changes [8]: did not observe any differences
- survival ([8]; data not shown): did not observe any differences
